In ChEMBL document CHEMBL1156163, “(18)F Labeled benzimidazole derivatives as potential radiotracer for positron emission tomography (PET) tumor imaging” (Bioorg Med Chem, 2010):

Legend:
[1] = Biodistribution in mouse S180 cells xenografted Kunming mouse tumor at 10 to 20 uCi, iv after 30 mins by gamma counting; type: ADME, organism-based, Neoplasm, CCRF S-180; conditions: in vivo, 0.5 h
[2] = Ratio of drug uptake in tumor to blood of mouse S180 cells xenografted Kunming mouse at 10 to 20 uCi, iv after 5 mins by gamma counting; type: ADME, organism-based, CCRF S-180; conditions: tumour
[3] = Biodistribution in mouse S180 cells xenografted Kunming mouse tumor at 10 to 20 uCi, iv after 120 mins by gamma counting; type: ADME, organism-based, Neoplasm, CCRF S-180; conditions: in vivo, 2 h
[4] = Ratio of drug uptake in tumor to blood of mouse S180 cells xenografted Kunming mouse at 10 to 20 uCi, iv after 15 mins by gamma counting; type: ADME, organism-based, CCRF S-180; conditions: tumour, 0.25 h
[5] = Ratio of drug uptake in tumor to muscle of mouse S180 cells xenografted Kunming mouse at 10 to 20 uCi, iv after 15 mins by gamma counting; type: ADME, organism-based, CCRF S-180; conditions: in vivo, 0.25 h
[6] = Biodistribution in mouse S180 cells xenografted Kunming mouse tumor at 10 to 20 uCi, iv after 60 mins by gamma counting; type: ADME, organism-based, Neoplasm, CCRF S-180; conditions: in vivo, 1 h
[7] = system: Lung; assay: Biodistribution in mouse S180 cells xenografted Kunming mouse lung at 10 to 20 uCi, iv after 30 mins by gamma counting; type: ADME, organism-based, CCRF S-180; conditions: in vivo, 0.5 h
[8] = system: Kidney; assay: Biodistribution in mouse S180 cells xenografted Kunming mouse kidney at 10 to 20 uCi, iv after 60 mins by gamma counting; type: ADME, organism-based, CCRF S-180; conditions: in vivo, 1 h
[9] = system: Pancreas; assay: Biodistribution in mouse S180 cells xenografted Kunming mouse pancreas at 10 to 20 uCi, iv after 60 mins by gamma counting; type: ADME, organism-based, CCRF S-180; conditions: in vivo, 1 h
[10] = system: Heart; assay: Biodistribution in mouse S180 cells xenografted Kunming mouse heart at 10 to 20 uCi, iv after 60 mins by gamma counting; type: ADME, organism-based, CCRF S-180; conditions: in vivo, 1 h
[11] = system: Kidney; assay: Biodistribution in mouse S180 cells xenografted Kunming mouse kidney at 10 to 20 uCi, iv after 5 mins by gamma counting; type: ADME, organism-based, CCRF S-180; conditions: in vivo
[12] = Ratio of drug uptake in tumor to muscle of mouse S180 cells xenografted Kunming mouse at 10 to 20 uCi, iv after 30 mins by gamma counting; type: ADME, organism-based, CCRF S-180; conditions: in vivo, 0.5 h
[13] = system: Brain; assay: Biodistribution in mouse S180 cells xenografted Kunming mouse brain at 10 to 20 uCi, iv after 60 mins by gamma counting; type: ADME, organism-based, CCRF S-180; conditions: in vivo, 1 h
[14] = Ratio of drug uptake in tumor to blood of mouse S180 cells xenografted Kunming mouse at 10 to 20 uCi, iv after 60 mins by gamma counting; type: ADME, organism-based, CCRF S-180; conditions: tumour, 1 h
[15] = system: Muscle tissue; assay: Biodistribution in mouse S180 cells xenografted Kunming mouse muscle at 10 to 20 uCi, iv after 30 mins by gamma counting; type: ADME, organism-based, CCRF S-180; conditions: in vivo, 0.5 h
[16] = Ratio of drug uptake in tumor to brain of mouse S180 cells xenografted Kunming mouse at 10 to 20 uCi, iv after 15 mins by gamma counting; type: ADME, organism-based, CCRF S-180; conditions: in vivo, 0.25 h
[17] = system: Muscle tissue; assay: Biodistribution in mouse S180 cells xenografted Kunming mouse muscle at 10 to 20 uCi, iv after 60 mins by gamma counting; type: ADME, organism-based, CCRF S-180; conditions: in vivo, 1 h
[18] = system: Lung; assay: Biodistribution in mouse S180 cells xenografted Kunming mouse lung at 10 to 20 uCi, iv after 120 mins by gamma counting; type: ADME, organism-based, CCRF S-180; conditions: in vivo, 2 h
[19] = system: Liver; assay: Biodistribution in mouse S180 cells xenografted Kunming mouse liver at 10 to 20 uCi, iv after 30 mins by gamma counting; type: ADME, organism-based, CCRF S-180; conditions: in vivo, 0.5 h
[20] = system: Heart; assay: Biodistribution in mouse S180 cells xenografted Kunming mouse heart at 10 to 20 uCi, iv after 30 mins by gamma counting; type: ADME, organism-based, CCRF S-180; conditions: in vivo, 0.5 h
[21] = system: Liver; assay: Biodistribution in mouse S180 cells xenografted Kunming mouse liver at 10 to 20 uCi, iv after 15 mins by gamma counting; type: ADME, organism-based, CCRF S-180; conditions: in vivo, 0.25 h
[22] = system: Heart; assay: Biodistribution in mouse S180 cells xenografted Kunming mouse heart at 10 to 20 uCi, iv after 120 mins by gamma counting; type: ADME, organism-based, CCRF S-180; conditions: in vivo, 2 h
[23] = system: Pancreas; assay: Biodistribution in mouse S180 cells xenografted Kunming mouse pancreas at 10 to 20 uCi, iv after 5 mins by gamma counting; type: ADME, organism-based, CCRF S-180; conditions: in vivo
[24] = system: Lung; assay: Biodistribution in mouse S180 cells xenografted Kunming mouse lung at 10 to 20 uCi, iv after 60 mins by gamma counting; type: ADME, organism-based, CCRF S-180; conditions: in vivo, 1 h
[25] = system: Blood; assay: Biodistribution in mouse S180 cells xenografted Kunming mouse blood at 10 to 20 uCi, iv after 5 mins by gamma counting; type: ADME, organism-based, CCRF S-180; conditions: in vivo
[26] = Ratio of drug uptake in tumor to blood of mouse S180 cells xenografted Kunming mouse at 10 to 20 uCi, iv after 120 mins by gamma counting; type: ADME, organism-based, CCRF S-180; conditions: tumour, 2 h
[27] = system: Blood; assay: Biodistribution in mouse S180 cells xenografted Kunming mouse blood at 10 to 20 uCi, iv after 60 mins by gamma counting; type: ADME, organism-based, CCRF S-180; conditions: in vivo, 1 h
[28] = system: Pancreas; assay: Biodistribution in mouse S180 cells xenografted Kunming mouse pancreas at 10 to 20 uCi, iv after 120 mins by gamma counting; type: ADME, organism-based, CCRF S-180; conditions: in vivo, 2 h
[29] = system: Lung; assay: Biodistribution in mouse S180 cells xenografted Kunming mouse lung at 10 to 20 uCi, iv after 5 mins by gamma counting; type: ADME, organism-based, CCRF S-180; conditions: in vivo
[30] = system: Kidney; assay: Biodistribution in mouse S180 cells xenografted Kunming mouse kidney at 10 to 20 uCi, iv after 120 mins by gamma counting; type: ADME, organism-based, CCRF S-180; conditions: in vivo, 2 h
[31] = system: Muscle tissue; assay: Biodistribution in mouse S180 cells xenografted Kunming mouse muscle at 10 to 20 uCi, iv after 15 mins by gamma counting; type: ADME, organism-based, CCRF S-180; conditions: in vivo, 0.25 h
[32] = system: Lung; assay: Biodistribution in mouse S180 cells xenografted Kunming mouse lung at 10 to 20 uCi, iv after 15 mins by gamma counting; type: ADME, organism-based, CCRF S-180; conditions: in vivo, 0.25 h
[33] = system: Kidney; assay: Biodistribution in mouse S180 cells xenografted Kunming mouse kidney at 10 to 20 uCi, iv after 30 mins by gamma counting; type: ADME, organism-based, CCRF S-180; conditions: in vivo, 0.5 h
[34] = system: Brain; assay: Biodistribution in mouse S180 cells xenografted Kunming mouse brain at 10 to 20 uCi, iv after 120 mins by gamma counting; type: ADME, organism-based, CCRF S-180; conditions: in vivo, 2 h
[35] = system: Brain; assay: Biodistribution in mouse S180 cells xenografted Kunming mouse brain at 10 to 20 uCi, iv after 15 mins by gamma counting; type: ADME, organism-based, CCRF S-180; conditions: in vivo, 0.25 h
[36] = Biodistribution in mouse S180 cells xenografted Kunming mouse tumor at 10 to 20 uCi, iv after 15 mins by gamma counting; type: ADME, organism-based, Neoplasm, CCRF S-180; conditions: in vivo, 0.25 h
[37] = Ratio of drug uptake in tumor to brain of mouse S180 cells xenografted Kunming mouse at 10 to 20 uCi, iv after 60 mins by gamma counting; type: ADME, organism-based, CCRF S-180; conditions: in vivo, 1 h
[38] = Ratio of drug uptake in tumor to muscle of mouse S180 cells xenografted Kunming mouse at 10 to 20 uCi, iv after 5 mins by gamma counting; type: ADME, organism-based, CCRF S-180; conditions: in vivo
[39] = Ratio of drug uptake in tumor to muscle of mouse S180 cells xenografted Kunming mouse at 10 to 20 uCi, iv after 120 mins by gamma counting; type: ADME, organism-based, CCRF S-180; conditions: in vivo, 2 h
[40] = system: Heart; assay: Biodistribution in mouse S180 cells xenografted Kunming mouse heart at 10 to 20 uCi, iv after 15 mins by gamma counting; type: ADME, organism-based, CCRF S-180; conditions: in vivo, 0.25 h
[41] = Ratio of drug uptake in tumor to brain of mouse S180 cells xenografted Kunming mouse at 10 to 20 uCi, iv after 120 mins by gamma counting; type: ADME, organism-based, CCRF S-180; conditions: in vivo, 2 h
[42] = system: Blood; assay: Biodistribution in mouse S180 cells xenografted Kunming mouse blood at 10 to 20 uCi, iv after 15 mins by gamma counting; type: ADME, organism-based, CCRF S-180; conditions: in vivo, 0.25 h
[43] = system: Liver; assay: Biodistribution in mouse S180 cells xenografted Kunming mouse liver at 10 to 20 uCi, iv after 60 mins by gamma counting; type: ADME, organism-based, CCRF S-180; conditions: in vivo, 1 h

N[C@@H](Cc1ccc(OCC[18F])cc1)C(=O)O [FLORETYROSINE F18]
Drug uptake [1]: 3.28 % ID/g | Ratio [2]: 0.31 | Drug uptake [3]: 2.15 % ID/g | Ratio [4]: 0.76 | Ratio [5]: 0.75 | Drug uptake [6]: 2.75 % ID/g | Drug uptake [7]: 8.57 % ID/g | Drug uptake [8]: 3.75 % ID/g | Drug uptake [9]: 0.03 % ID/g | Drug uptake [10]: 3.14 % ID/g | Drug uptake [11]: 6.58 % ID/g | Ratio [12]: 0.62 | Drug uptake [13]: 0.94 % ID/g | Ratio [14]: 1.1 | Drug uptake [15]: 2.69 % ID/g | Ratio [16]: 2.43 | Drug uptake [17]: 2.37 % ID/g | Drug uptake [18]: 1.55 % ID/g | Drug uptake [19]: 4.23 % ID/g | Drug uptake [20]: 3.27 % ID/g | Drug uptake [21]: 5.6 % ID/g | Drug uptake [22]: 0.94 % ID/g | Drug uptake [23]: 0.93 % ID/g | Drug uptake [24]: 4.7 % ID/g | Drug uptake [25]: 6.81 % ID/g | Ratio [26]: 1.92 | Drug uptake [27]: 2.51 % ID/g | Drug uptake [28]: 0.09 % ID/g | Drug uptake [29]: 16.8 % ID/g | Drug uptake [30]: 1.29 % ID/g | Drug uptake [31]: 3.34 % ID/g | Drug uptake [32]: 9.82 % ID/g | Drug uptake [33]: 2.38 % ID/g | Drug uptake [34]: 0.73 % ID/g | Drug uptake [35]: 1.03 % ID/g | Drug uptake [36]: 2.5 % ID/g | Ratio [37]: 2.92 | Ratio [38]: 0.72 | Ratio [39]: 1.02 | Drug uptake [40]: 3.41 % ID/g | Ratio [41]: 2.95 | Drug uptake [42]: 3.3 % ID/g | Drug uptake [43]: 3.56 % ID/g
